Data published in patent publication US11220503B2, “Phthalazine derivatives, preparation method, pharmaceutical composition and usage thereof” (Shanghai SIMR Biotech Co., Ltd., priority 2015, dated 2022).

Biological target: T1, α5β3γ2 receptor (Homo sapiens, UniProt P18507+P31644)
T1 construct: expressed in transfected cells; host or cells: HEK-293 (stably transfected)
Experiment: Supplementary data for cell level screening: new electrophysiology method (I. Lecker et al)
Format: cell-based
Conditions: for Inverse agonism efficacy(%): new method, CsCl intracellular solution, GABA 0.1˜0.3 CM, other procedures as previous method; for inverse agonism efficacy of the compound/α5IA inverse agonism efficacy: ratio to the α5IA reference run above in the table (r4 or r29)
Procedure: The inventors used electrophysiological methods to assay the inverse agonist efficacy of the substance to be tested. The detailed procedures are as follows: (1) Different subunits of GABAA receptors were expressed in human embryonic kidney cells 293 (HEK293). The cells were cultured in a culture medium and used as a cell model for screening potential analgesics. The α, β and γ subunits are necessary to form complete functional GABAA receptors. In this example, the inventor has established the following cell model: (a) α5 subunit (protein sequence is GenBank accession number: NP_001158509), β3 subunit (protein sequence is GenBank accession number: NP_068712) and γ2 subunit (protein sequence is GenBank accession number: NP_944494) were expressed in HEK-293 cell lines at the same time, which formed the complete functional GABAA receptors. (2) Cells were stably transfected HEK-293 cells expressing α5β3γ2 receptor, which were labeled by green fluorescent protein (GFP). Cells were grown in 10 cm dishes. The cells were passaged after reaching 80-90% confluence. During passaging, the culture medium was removed and discarded, 3 mL DMEM medium (Gibco™) was added to the dishes, the dishes were shaken slightly, and DMEM was removed and discarded. 3 mL Trypsin (Trypsin-EDTA 0.05%, Gibco™) was added and cells were digested at 37° C. for 3 minutes. Then 3 mL complete growth medium (DMEM+10% horse serum (Gibco™)) was added and the cells at the bottom of the culture dishes were dispersed. The cell suspension were transferred to a 15 mL centrifugal tube (Corning®) and then centrifuged at 200 g for 3 minutes. The supernatant was discarded, 4 mL complete growth medium was added, and the cells were resuspended by gently blowing. The cell suspension was diluted by 1:5 or 1:10 for subculturing. The cell suspension was diluted by 1:12 for electrophysiology experiment, which are added to the 24 well plate (Corning®) which has a glass slide pre-treated with poly-D-lysine. The cells were adhered to the slide before the experiment was conducted. The cells were maintained in culture for no more than 24 hours before use. (3) Compound concentration: for screening, all compounds were diluted to a final concentration of 100 nM. […] The compounds were at the concentration of 1 nM, 10 nM, 50 nM, 100 nM and 1000 nM in dose-inverse agonism efficacy (%) experiment. The whole cell patch clamp technique was used in electrophysiology experiments. The extracellular solution (ECS) contained: 150 mM NaCl, 5 mM KCl, 2.5 mM CaCl2, 1 mM MgCl2, 10 mM HEPES and 10 mM glucose (pH 7.4); […], 5 mM EGTA, 10 mM HEPES ([…] water). The currents were recorded by an EPC-10 amplifier and the PatchMaster software (HEKA). Patch electrodes with a resistance of 5-6 MΩ were pulled from borosilicate glass (Sutter). The diluted compounds were perfused by OCTAFLOWII system. GFP positive and independently growing cells were selected for recording. During recording, the membrane voltage was clamped at −60 mV. During experiment, the cells were firstly perfused with ECS for 20 seconds. When the baseline reached to a stable state, cells were then perfused with GABA solution. Then the current induced by GABA can be detected. After about 20-40 seconds, the current was stable. ECS was switched to compounds solution and the effects of the compounds were detected. At last, the perfusion solution was switched to ECS. The experiment was finished when the post-baseline returned to the pre-baseline before compounds perfusion. Only the data whose pre-baseline and post-baseline are at almost the same level were used for analysis. […] Then, compounds were diluted at the desired concentration in GABA ECS. (4) Currents were analyzed with the PatchMaster (HEKA) software. The GABA currents before (Ipre) and after (Ipost) compounds perfusion were recorded respectively. The efficacies of compounds were calculated by the following equation: inverse agonism efficacy=(Ipost-Ipre)*100/Ipre. N indicates experiment numbers. […]

T1 sequence (P31644 32-462): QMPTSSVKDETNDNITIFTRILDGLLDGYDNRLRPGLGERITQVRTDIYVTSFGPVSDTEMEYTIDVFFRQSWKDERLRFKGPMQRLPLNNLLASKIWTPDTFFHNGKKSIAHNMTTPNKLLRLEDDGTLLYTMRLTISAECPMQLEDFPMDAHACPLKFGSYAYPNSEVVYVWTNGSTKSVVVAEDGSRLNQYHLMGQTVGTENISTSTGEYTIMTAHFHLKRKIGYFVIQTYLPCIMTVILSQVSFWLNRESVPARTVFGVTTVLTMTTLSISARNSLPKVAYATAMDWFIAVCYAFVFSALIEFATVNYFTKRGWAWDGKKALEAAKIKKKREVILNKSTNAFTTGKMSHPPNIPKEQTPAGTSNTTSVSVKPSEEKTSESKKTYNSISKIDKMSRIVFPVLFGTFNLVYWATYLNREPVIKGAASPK
T1 sequence (P28472 26-473 isoform P28472-2 partner limits assumed): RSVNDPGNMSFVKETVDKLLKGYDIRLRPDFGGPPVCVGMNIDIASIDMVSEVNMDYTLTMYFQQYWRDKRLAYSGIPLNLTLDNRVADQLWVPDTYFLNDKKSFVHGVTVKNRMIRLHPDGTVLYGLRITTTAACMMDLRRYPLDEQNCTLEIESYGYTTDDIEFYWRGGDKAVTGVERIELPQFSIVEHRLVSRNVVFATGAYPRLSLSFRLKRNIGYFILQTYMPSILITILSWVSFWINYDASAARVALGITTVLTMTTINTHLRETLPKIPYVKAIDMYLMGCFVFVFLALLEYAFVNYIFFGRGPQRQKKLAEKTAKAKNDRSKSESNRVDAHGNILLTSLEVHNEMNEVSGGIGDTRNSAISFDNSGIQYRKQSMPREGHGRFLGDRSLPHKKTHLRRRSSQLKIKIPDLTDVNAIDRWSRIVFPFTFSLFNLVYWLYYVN
T1 sequence (P18507 40-475): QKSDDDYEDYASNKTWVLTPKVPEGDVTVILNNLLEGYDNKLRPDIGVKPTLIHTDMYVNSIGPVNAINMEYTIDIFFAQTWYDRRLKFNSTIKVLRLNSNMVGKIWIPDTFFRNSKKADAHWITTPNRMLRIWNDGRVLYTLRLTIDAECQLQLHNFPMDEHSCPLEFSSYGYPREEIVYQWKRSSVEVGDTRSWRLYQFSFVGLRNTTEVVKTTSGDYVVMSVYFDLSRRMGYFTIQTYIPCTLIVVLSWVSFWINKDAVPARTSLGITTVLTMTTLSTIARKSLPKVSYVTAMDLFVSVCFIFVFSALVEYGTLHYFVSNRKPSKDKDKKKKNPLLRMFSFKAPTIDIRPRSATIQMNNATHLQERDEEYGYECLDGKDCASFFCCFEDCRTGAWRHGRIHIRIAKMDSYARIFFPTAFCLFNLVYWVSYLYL

SMILES | Inverse agonism efficacy(%) | inverse agonism efficacy of the compound/α5IA inverse agonism efficacy
Cc1cc(-c2nnc3c4ccccc4c(OCc4ccc(C(=O)NC5CC5)cn4)nn23)no1 [Compound 04, N-cyclopropyl-6-(((3-(5-methylisoxazol-3-yl)-[1,2,4]triazolo[3,4-a]phthalazin-6-yl)oxy)methyl) nicotinamide] | −26.5 | 1.526
Cc1cc(-c2nnc3c4ccccc4c(OCc4ccc(C(=O)NC5CCN(C)CC5)cn4)nn23)no1 [Compound 11, 6-(((3-(5-methylisoxazol-3-yl)-[1,2,4]triazolo[3,4-a]phthalazin-6-yl)oxy)methyl)-N-(1-methylpiperidin-4-yl)nicotinamide] | −17.71 | 1.020
Cc1cc(-c2nnc3c4ccccc4c(OCc4ccc(C(=O)NCCN5CCOCC5)cn4)nn23)no1 [Compound 12, 6-(((3-(5-methylisoxazol-3-yl)-[1,2,4]triazolo[3,4-a]phthalazin-6-yl)oxy)methyl)-N-(2-morpholinoethyl)nicotinamide] | −19.0625 | 1.098
COC1CCN(C(=O)c2ccc(COc3nn4c(-c5cc(C)on5)nnc4c4ccccc34)nc2)CC1 [Compound 22, (4-methoxypiperidin-1-yl)(6-(((3-(5-methylisoxazol-3-yl)-[1,2,4]triazolo[3,4-a]phthalazin-6-yl)oxy)methyl)pyridin-3-yl)methanone] | −33 | 1.774
Cc1cc(-c2nnc3c4ccccc4c(OCc4ccc(C(=O)NCC5CCCO5)cn4)nn23)no1 (centres unmarked) [Compound 26, 6-(((3-(5-methylisoxazol-3-yl)-[1,2,4]triazolo[3,4-a]phthalazin-6-yl)oxy)methyl)-N-((tetrahydrofuran-2-yl)methyl)nicotinamide] | −21.5 | 1.238
Cc1cc(-c2nnc3c4ccccc4c(OCc4ccc(C(=O)NCCS(C)(=O)=O)cn4)nn23)no1 [Compound 27, 6-(((3-(5-methylisoxazol-3-yl)-[1,2,4]triazolo[3,4-a]phthalazin-6-yl)oxy)methyl)-N-(2-(methylsulfonyl)ethyl)nicotinamide] | −32.1 | 1.726
Cc1cc(-c2nnc3c4ccccc4c(OCc4ccc(C(N)=O)cn4)nn23)no1 [Compound 28, 6-(((3-(5-methylisoxazol-3-yl)-[1,2,4]triazolo[3,4-a]phthalazin-6-yl)oxy)methyl)nicotinamide] | −19.86 | 1.143
Cc1cc(-c2nnc3c4ccccc4c(OCc4ccc(C(=O)NCC(F)(F)F)cn4)nn23)no1 [Compound 30, 6-(((3-(5-methylisoxazol-3-yl)-[1,2,4]triazolo[3,4-a]phthalazin-6-yl)oxy)methyl)-N-(2,2,2-trifluoroethyl)nicotinamide] | −52 | 2.796
O=C(NC1CC1)c1ccc(COc2nn3c(-c4cc(CO)on4)nnc3c3ccccc23)nc1 [Compound 36, N-cyclopropyl-6-(((3-(5-(hydroxymethyl)isoxazol-3-yl)-[1,2,4]triazolo[3,4-a]phthalazin-6-yl)oxy)methyl)nicotinamide] | −28.8 | 1.658
O=C(NCC(F)(F)F)c1ccc(COc2nn3c(-c4cc(CO)on4)nnc3c3ccccc23)nc1 [Compound 42, 6-(((3-(5-(hydroxymethyl)isoxazol-3-yl)-[1,2,4]triazolo[3,4-a]phthalazin-6-yl)oxy)methyl)-N-(2,2,2-trifluoroethyl)nicotinamide] | −32.5 | 1.871
